The numbers were not newly measured in patent US10047050B2, “3,4-di-substituted pyridine compound, methods of using and compositions comprising the same” (ARDEA BIOSCIENCES, INC., priority 2011, dated 2018), which cites them from elsewhere.

For this data set the following is noted: cited from earlier work.
Where [1] appears, read: individuals treated with probenecid.

For the compound `Oc1ncnc2[nH]ncc12` [Allopurinol, allopurinol], where the note is “of all individuals treated with the drug”, the “incidence of side effects” value is 20%.
In the case of `CCCN(CCC)S(=O)(=O)c1ccc(C(=O)O)cc1` [probenecid], under setting [1], the “individuals who develop intolerance” value is listed as “one-third” and the “individuals who fail to achieve reduction of serum uric acid levels <6 mg/dL” value was 25-50%.
